Reference: patent US20240109881A1, “Heteroaryl Compounds as Ligand Directed Degraders of IRAK4” (Bristol-Myers Squibb Company, priority 2022, published 2024)

Biological target: T1, IRAK4 (Homo sapiens, UniProt Q9NWZ3)
T1 construct: endogenous in cells; host or cells: THP-1 cells
T1 sequence (Q9NWZ3 1-460): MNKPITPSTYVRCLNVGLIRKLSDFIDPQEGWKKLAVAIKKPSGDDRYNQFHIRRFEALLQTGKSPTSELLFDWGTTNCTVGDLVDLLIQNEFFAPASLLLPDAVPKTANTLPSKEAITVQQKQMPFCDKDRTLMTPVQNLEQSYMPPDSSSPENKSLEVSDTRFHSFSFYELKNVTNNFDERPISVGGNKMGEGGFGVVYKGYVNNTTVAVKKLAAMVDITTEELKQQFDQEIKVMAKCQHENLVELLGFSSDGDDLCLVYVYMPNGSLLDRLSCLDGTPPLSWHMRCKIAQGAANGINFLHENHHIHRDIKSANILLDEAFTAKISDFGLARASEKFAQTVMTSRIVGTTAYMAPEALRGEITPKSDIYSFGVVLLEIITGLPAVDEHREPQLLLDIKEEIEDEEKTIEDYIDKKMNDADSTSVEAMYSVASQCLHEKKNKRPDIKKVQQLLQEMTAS
Test: ALE THP1 HTRF (Advanced Lipoxidation End Product THP1 Homogeneous Time Resolved Fluorescence)
Type: cell-based
Details: THP1 cells
Outline: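 Cells lysed 45 min at room temperature; lysates normalized to total protein by BCA. Total IRAK4 detected by HTRF sandwich (anti-IRAK4-d2 plus anti-IRAK4-cryptate), incubated overnight in the dark at room temperature, read on a time-resolved fluorescence plate reader.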

SMILES	ALE THP1 HTRF YMIN [%]	EC50 [nM]
CN(CC1CCC(NC(=O)c2cnc(-n3ncc4cc(C#N)cnc43)cc2NC2CCCC2)CC1)C1CCN(c2ccc(C3CCC(=O)NC3=O)cc2)CC1 (centres unmarked) [P-60]	11.3	945
N#Cc1cnc2c(cnn2-c2cc(NC3CCCC3)c(C(=O)N[C@H]3CC[C@H](CCN4CCN(c5ccc6c(c5)C(=O)N(C5CCC(=O)NC5=O)C6=O)CC4)CC3)cn2)c1 (some centres unmarked) [P-61]	9.2	101
C[C@H]1CN(c2ccc(C3CCC(=O)NC3=O)cc2)CCN1CCC1CCC(NC(=O)c2cnc(-n3ncc4cc(C#N)cnc43)cc2NC2CCCC2)CC1 (some centres unmarked) [P-62]	6.6	70
N#Cc1cnc2c(cnn2-c2cc(N[C@H]3CCC[C@@H]3O)c(C(=O)NC3CCC(CCN4CCN(c5ccc(C6CCC(=O)NC6=O)cc5)CC4)CC3)cn2)c1 (some centres unmarked) [P-63]	8.3	6
C[C@H]1CN(c2ccc(C3CCC(=O)NC3=O)cc2)C[C@H](C)N1CCC1CCC(NC(=O)c2cnc(-n3ncc4cc(C#N)cnc43)cc2NC2CCCC2)CC1 (some centres unmarked) [P-67]	9.3	34
C[C@@H]1CN(c2ccc(C3CCC(=O)NC3=O)cc2)C[C@@H](C)N1CCC1CCC(NC(=O)c2cnc(-n3ncc4cc(C#N)cnc43)cc2NC2CCCC2)CC1 (some centres unmarked) [P-68]	19.3	136
N#Cc1cnc2c(cnn2-c2cc(NC3CCCC3)c(C(=O)N[C@H]3CC[C@H](CN4CCC(COc5ccc(C6CCC(=O)NC6=O)cc5)CC4)CC3)cn2)c1 (some centres unmarked) [P-69]	15.4	417
N#Cc1cnc2c(cnn2-c2cc(Nc3cnn(CC(F)(F)F)c3)c(C(=O)NC3CCC(CCN4CCN(c5ccc(C6CCC(=O)NC6=O)cc5)CC4)CC3)cn2)c1 (centres unmarked) [P-70]	8.2	3
N#Cc1cnc2c(cnn2-c2cc(NC3CC3)c(C(=O)NC3CCC(CCN4CCC(c5ccc(C6CCC(=O)NC6=O)cc5)CC4)CC3)cn2)c1 (centres unmarked) [P-72]	9.5	5
O=C1CCC(c2ccc(N3CCN(CCC4CCC(NC(=O)c5cnc(Nc6ccc7ncsc7c6)cc5NC5CCCC5)CC4)CC3)cc2)C(=O)N1 (centres unmarked) [P-73]	8.1	58
N#Cc1cnc2c(cnn2-c2cc(NC3CCOCC3)c(C(=O)NC3CCC(CCN4CCN(c5ccc(C6CCC(=O)NC6=O)cc5)CC4)CC3)cn2)c1 (centres unmarked) [P-74]	9.4	8
N#Cc1cnn2c(-c3cc(NC4CCCC4)c(C(=O)NC4CCC(CCN5CCN(c6ccc(C7CCC(=O)NC7=O)cc6)CC5)CC4)cn3)ccc2c1 (centres unmarked) [P-75]	11.4	62
COc1cc(N2CCN(CCC3CCC(NC(=O)c4cnc(-n5ncc6cc(C#N)cnc65)cc4NC4CC4)CC3)CC2)ccc1C1CCC(=O)NC1=O (centres unmarked) [P-79]	12.2	43
COc1cc(C2CCC(=O)NC2=O)ccc1N1CCN(CCC2CCC(NC(=O)c3cnc(-n4ncc5cc(C#N)cnc54)cc3NC3CC3)CC2)CC1 (centres unmarked) [P-80]	7.3	26
CC(C)(C[C@H]1CC[C@H](NC(=O)c2cnc(-n3ncc4cc(C#N)cnc43)cc2NC2CCCC2)CC1)N1CCN(c2ccc(C3CCC(=O)NC3=O)cc2)CC1 (some centres unmarked) [P-81, 6-(5-cyano-1H-pyrazolo[3,4-b]pyridin-1-yl)-4-(cyclopentylamino)-N-((1r,4r)-4-(2-(4-(4-(2,6-dioxopiperidin-3-yl)phenyl)piperazin-1-yl)-2-methylpropyl)cyclohexyl)nicotinamide]	10.7	73
N#Cc1cnc2c(cnn2-c2cc(NC3CC3)c(C(=O)NC3CCC(CCN4CCN(c5ccc(C6CCC(=O)NC6=O)c(Cl)c5)CC4)CC3)cn2)c1 (centres unmarked) [P-84]	9.7	35
N#Cc1cnc2c(cnn2-c2cc(NC3CC3)c(C(=O)NC3CCC(CCN4CCN(c5ccc(C6CCC(=O)NC6=O)nc5)CC4)CC3)cn2)c1 (centres unmarked) [P-85]	11.7	117
N#Cc1cnc2c(cnn2-c2cc(NC3CCCC3)c(-n3cc([C@H]4CC[C@H](CCN5CCN(c6ccc(C7CCC(=O)NC7=O)cc6)CC5)CC4)nn3)cn2)c1 (some centres unmarked) [P-87, 1-[4-(cyclopentylamino)-5-[4-[4-[2-[4-[4-(2,6-dioxo-3-piperidyl)phenyl]piperazin-1-yl]ethyl]cyclohexyl]triazol-1-yl]-2-pyridyl]pyrazolo[3,4-b]pyridine-5-carbonitrile]	10.5	26
N#Cc1cnc2c(cnn2-c2cc(NC3CC3)c(C(=O)N[C@H]3CC[C@H](OCC4CCN(c5ccc(C6CCC(=O)NC6=O)cc5)CC4)CC3)cn2)c1 (some centres unmarked) [P-88]	64.5	49
N#Cc1cnc2c(cnn2-c2cc(NC3CC3)c(C(=O)N[C@H]3CC[C@H](CCN4CCC5(CC4)CN(c4cccc(C6CCC(=O)NC6=O)c4)C5)CC3)cn2)c1 (some centres unmarked) [P-90]	11.6	28
N#Cc1cnc2c(-c3cc(NC4CC4)c(C(=O)NC4CCC(CCN5CCN(c6ccc(C7CCC(=O)NC7=O)cc6)CC5)CC4)cn3)cnn2c1 (centres unmarked) [P-93]	13.0	23
N#Cc1cnc2c(cnn2-c2cc(NC3CC3)c(C(=O)NC3CCC(CCN4CCN(c5ccc(C6CCC(=O)NC6=O)cn5)CC4)CC3)cn2)c1 (centres unmarked) [P-98]	10.5	17
N#Cc1cc2ccn(-c3cc(NC4CC4)c(C(=O)NC4CCC(CCN5CCN(c6ccc(C7CCC(=O)NC7=O)cc6)CC5)CC4)cn3)c2nc1F (centres unmarked) [P-100]	28.3	1100

Further lines, results first:

ALE THP1 HTRF YMIN [%]	EC50 [nM]	SMILES
10.1	30	CC(C)CNc1cc(-n2ncc3cc(C#N)cnc32)ncc1C(=O)NC1CCC(CCN2CCN(c3ccc(C4CCC(=O)NC4=O)cc3)CC2)CC1 (centres unmarked) [P-64]
7.3	10	CC(F)(F)CNc1cc(-n2ncc3cc(C#N)cnc32)ncc1C(=O)NC1CCC(CCN2CCN(c3ccc(C4CCC(=O)NC4=O)cc3)CC2)CC1 (centres unmarked) [P-65]
11.2	6	N#Cc1cnc2c(cnn2-c2cc(N[C@H]3CCC[C@H]3O)c(C(=O)NC3CCC(CCN4CCN(c5ccc(C6CCC(=O)NC6=O)cc5)CC4)CC3)cn2)c1 (some centres unmarked) [P-66]
10.9	8	CCNc1cc(-n2ncc3cc(C#N)cnc32)ncc1C(=O)NC1CCC(CCN2CCN(c3ccc(C4CCC(=O)NC4=O)cc3)CC2)CC1 (centres unmarked) [P-71]
8.3	7	CC1(Nc2cc(-n3ncc4cc(C#N)cnc43)ncc2C(=O)NC2CCC(CCN3CCN(c4ccc(C5CCC(=O)NC5=O)cc4)CC3)CC2)CC1 (centres unmarked) [P-76]
11.3	28	CC(Nc1cc(-n2ncc3cc(C#N)cnc32)ncc1C(=O)NC1CCC(CCN2CCN(c3ccc(C4CCC(=O)NC4=O)cc3)CC2)CC1)C(F)(F)F (centres unmarked) [P-77]
7.6	9	C[C@@H](CO)Nc1cc(-n2ncc3cc(C#N)cnc32)ncc1C(=O)NC1CCC(CCN2CCN(c3ccc(C4CCC(=O)NC4=O)cc3)CC2)CC1 (some centres unmarked) [P-78]
8.6	230	N#Cc1cnc2c(cnn2-c2cc(NC3CCC3)c(C(=O)NC3CCC(CCN4CCN(c5ccc(C6CCC(=O)NC6=O)cc5)CC4)CC3)cn2)c1 (centres unmarked) [P-82]
8.1	47	CC(C)(C)Nc1cc(-n2ncc3cc(C#N)cnc32)ncc1C(=O)NC1CCC(CCN2CCN(c3ccc(C4CCC(=O)NC4=O)cc3)CC2)CC1 (centres unmarked) [P-83]
11.8	90	CNc1cc(-n2ncc3cc(C#N)cnc32)ncc1C(=O)NC1CCC(CCN2CCN(c3ccc(C4CCC(=O)NC4=O)cc3)CC2)CC1 (centres unmarked) [P-86]
10.3	23	N#CCNc1cc(-n2ncc3cc(C#N)cnc32)ncc1C(=O)NC1CCC(CCN2CCN(c3ccc(C4CCC(=O)NC4=O)cc3)CC2)CC1 (centres unmarked) [P-89]
7.0	5	C[C@H](C#N)Nc1cc(-n2ncc3cc(C#N)cnc32)ncc1C(=O)N[C@H]1CC[C@H](CCN2CCN(c3ccc(C4CCC(=O)NC4=O)cc3)CC2)CC1 (stereo partly drawn) [P-91, 6-(5-Cyano-1H-pyrazolo[3,4-b]pyridin-1-yl)-4-(((R)-1-cyanoethyl)amino)-N-((1r,4r)-4-(2-(4-(4-(2,6-dioxopiperidin-3-yl)phenyl)piperazin-1-yl)ethyl)cyclohexyl)nicotinamide]
11.3	38	N#Cc1cnc2c(cnn2-c2cc(NC34CC(C3)C4)c(C(=O)NC3CCC(CCN4CCN(c5ccc(C6CCC(=O)NC6=O)cc5)CC4)CC3)cn2)c1 (centres unmarked) [P-92]
9.9	15	N#Cc1cnc2c(cnn2-c2cc(NC3CC3)c(C(=O)NC3CCC(CCN4CCN(c5ccc([C@H]6CCC(=O)NC6=O)cc5)CC4)CC3)cn2)c1 (some centres unmarked) [P-95]
8.5	4	N#Cc1cnc2c(cnn2-c2cc(NC3CC3)c(C(=O)NC3CCC(CCN4CCN(c5ccc([C@@H]6CCC(=O)NC6=O)cc5)CC4)CC3)cn2)c1 (some centres unmarked) [P-96]
15.1	88	N#Cc1cnc2c(cnn2-c2cc(NC3CC(F)(F)C3)c(C(=O)NC3CCC(CCN4CCN(c5ccc(C6CCC(=O)NC6=O)cc5)CC4)CC3)cn2)c1 (centres unmarked) [P-97]
10.7	22	N#Cc1cnc2c(cnn2-c2cc(NCCF)c(C(=O)NC3CCC(CCN4CCN(c5ccc(C6CCC(=O)NC6=O)cc5)CC4)CC3)cn2)c1 (centres unmarked) [P-99]
